Where “and” joins values, the source holds several entries; their conditions need not be identical. Equal entries are not always repeated. Where two headings read alike, the source gives them in different places.
Columns and labels:
Assay type in all cases: cell-based
[1] = system: Klebsiella pneumoniae; assay: microbe, parasite or virus in culture
Source text: (§1) (i) Panels of engineered bacterial strains containing various combinations of porin and efflux mutations were used. The construction of all the strains used in the study is described in detail in references, [44], and [45]. (ii) KPC-producing clinical isolates and their derivatives that lost KPC plasmids were used also. These strains and their origins are described in the Table S2. (iii) Finally, KPC-producing clinical isolates enriched in strains with porin mutations were used. The mutations identified include various deletions, insertions, nonsense mutations, and decreased expression. Most of the isolates were obtained from JMI Laboratories or International Health Management Associates (IHMA); they were collected in the course of global surveillance studies.
(§2) Bacterial isolates were subjected to broth microdilution susceptibility testing, performed according to Clinical and Laboratory Standards Institute (CLSI) methods ([46]), using panels prepared in-house. […] Xeruborbactam was synthesized at Qpex Biopharma, San Diego, CA. Avibactam was purchased from eNovation Chemicals LLC, Bridgewater, NJ, USA; zidebactam was from MedKoo Biosciences, Inc., Morrisville, NC, and nacubactam was from Advanced ChemBlocks, Hayward, CA. Durlobactam was synthesized at Acme Bioscience, Palo Alto, CA, USA.

[2] = system: Acinetobacter baumannii; assay: Broth microdilution MIC (CLSI), Acinetobacter baumannii; conditions: Acinetobacter baumannii
Source text: as §1, §2

[3] = system: Escherichia coli; assay: Broth microdilution MIC (CLSI), Escherichia coli; conditions: Escherichia coli
Source text: as §1, §2

[4] = system: Pseudomonas aeruginosa; assay: Broth microdilution MIC (CLSI), Pseudomonas aeruginosa
Source text: as §1, §2

[5] = Klebsiella pneumoniae, KPM1026a, parent, read-out: MIC
[6] = Klebsiella pneumoniae, KPM3532, TolQ::M189K
[7] = Klebsiella pneumoniae, KPM3534, TolQ::S31F
[8] = Klebsiella pneumoniae, KPM4235, TolQ::IP(183–1844)PR
[9] = Klebsiella pneumoniae, KPM4236, TolQ::TAA at aa 103
[10] = Klebsiella pneumoniae, KPM4238, TolQ::S25F
[11] = Klebsiella pneumoniae, KPM4239, TolQ::S28F
[12] = Klebsiella pneumoniae, KPM4240, TolQ::S25Y
[13] = Klebsiella pneumoniae, strain KPM1026a, wild type, read-out: MIC
[14] = Klebsiella pneumoniae, strain KPM1027, ramR, read-out: MIC
[15] = Klebsiella pneumoniae, strain KPM1171, ramR ompK36_1171, read-out: MIC
[16] = Klebsiella pneumoniae, strain KPM2040, ompK36_2040, read-out: MIC
[17] = Klebsiella pneumoniae, strain KPM2600, ΔompK35
[18] = Klebsiella pneumoniae, strain KPM2613, ΔompK35 ompK36_2040
[19] = Klebsiella pneumoniae, strain KPM2696, ΔacrB
[20] = strain AB1007, wild type, read-out: MIC
[21] = strain ACM1015, ΔadeIJK ΔadeABC
[22] = strain ACM1027, adeN (AdeIJK overexpression)
[23] = strain ACM1030, adeS (AdeABC overexpression)
[24] = strain ECM5497, wild type, read-out: MIC
[25] = strain ECM6502, marR (AcrAB overexpression)
[26] = Pseudomonas aeruginosa, strain PAM1020, wild type, read-out: MIC
[27] = Pseudomonas aeruginosa, strain PAM1032, nalB (MexAB-OprM overexpression)
[28] = Pseudomonas aeruginosa, strain PAM1033, nfxB (MexCD-OprJ overexpression)
[29] = Pseudomonas aeruginosa, strain PAM1034, nfxC (MexEF-OprN overexpression)
[30] = Pseudomonas aeruginosa, strain PAM1106, mexA::Tet
[31] = Pseudomonas aeruginosa, strain PAM1154, oprM::Hg
[32] = KPM3532 (TolQ::M189K), with xeruborbactam at 4 μg/mL
[33] = KPM3532 (TolQ::M189K), with xeruborbactam at 8 μg/mL
[34] = KPM3534 (TolQ::S31F), with xeruborbactam at 4 μg/mL
[35] = KPM3534 (TolQ::S31F), with xeruborbactam at 8 μg/mL
[36] = Klebsiella pneumoniae, KPM3532 (TolQ::M189K), alone
[37] = Klebsiella pneumoniae, KPM3534 (TolQ::S31F), alone
[38] = AB1007 (no beta-lactamase), xeruborbactam 0 µg/ml, read-out: MIC
[39] = AB1007, xeruborbactam 2 µg/ml, read-out: MIC
[40] = AB1007, xeruborbactam 4 µg/ml, read-out: MIC
[41] = AB1007, xeruborbactam 8 µg/ml, read-out: MIC
[42] = PAM1154 (oprM::Hg), xeruborbactam 0 µg/ml

`NC(=O)[C@@H]1CC[C@@H]2CN1C(=O)N2OS(=O)(=O)O` [Avibactam] was tested, and the MIC [1, 5] was 16 mg/L, the MIC [1, 6] was greater than 64 mg/L and the MIC [1, 7] was greater than 64 mg/L. The MIC [1, 8] was greater than 64 mg/L, the MIC [1, 9] was greater than 64 mg/L and the MIC [1, 10] was greater than 64 mg/L. It also gave an MIC [1, 11] greater than 64 mg/L, an MIC [1, 12] greater than 64 mg/L and an MIC [1, 13] of 16 mg/L. The MIC [1, 14] was 16 mg/L, the MIC [1, 15] was greater than 256 mg/L and the MIC [1, 16] was 256 mg/L. For the same compound, the MIC [1, 17] was 16 mg/L, the MIC [1, 18] was 256 mg/L and the MIC [1, 19] was 16 mg/L. For the same compound, the MIC [2, 20] was greater than 256 mg/L, the MIC ([2]; strain ACM1013, ΔadeIJK) was greater than 256 mg/L and the MIC ([2]; strain ACM1014, ΔadeABC) was greater than 256 mg/L. The MIC [2, 21] was greater than 256 mg/L, the MIC [2, 22] was greater than 256 mg/L and the MIC [2, 23] was greater than 256 mg/L. For the same compound, the MIC [3, 24] was 16 mg/L, the MIC ([3]; strain ECM6001, ΔacrB) was 16 mg/L and the MIC [3, 25] was 8 mg/L. It also gave an MIC ([4]; Pseudomonas aeruginosa, after inactivation of MexAB-OprM, read-out: MIC) of 128 mg/L, an MIC ([4]; Pseudomonas aeruginosa, before inactivation of MexAB-OprM (wild type), read-out: MIC) greater than 256 mg/L and an MIC [4, 26] greater than 256 mg/L. It also gave an MIC [4, 27] greater than 256 mg/L, an MIC [4, 28] of 32 mg/L and an MIC [4, 29] greater than 256 mg/L. For the same compound, the MIC [4, 30] was 128 mg/L and the MIC [4, 31] was 128 mg/L.
In the case of `CO/N=C(\C(=O)N[C@@H]1C(=O)N2C(C(=O)[O-])=C(C[N+]3(C)CCCC3)CS[C@H]12)c1csc(N)n1` [Cefepime], the “fold below the MIC that corresponds to complete inhibition of KPC” value ([1]; KP1074, in the presence of 8 μg/mL xeruborbactam) is reported as 2- to 8 fold, the MIC ([1]; KP1074, with xeruborbactam 2 µg/ml) is reported as 0.5 mg/L and the MIC ([1]; KP1074, with xeruborbactam 4 µg/ml) is reported as 0.25 mg/L. The MIC ([1]; KP1074, with xeruborbactam 8 µg/ml) was 0.125 mg/L, the MIC ([1]; KPM1026a (no beta-lactamase), xeruborbactam 0 µg/ml) was 0.03 mg/L and the “fold decrease compared to MIC of antibiotic alone” value (from here on “fold decrease compared to MIC”) ([1]; KPM1026a, with xeruborbactam at 4 μg/mL) was 2 fold. The “fold decrease compared to MIC” value ([1]; KPM1026a, with xeruborbactam at 8 μg/mL) was 16 fold, the MIC ([1]; KPM1026a, xeruborbactam 2 µg/ml) was 0.015 mg/L and the MIC ([1]; KPM1026a, xeruborbactam 4 µg/ml) was 0.015 mg/L. For the same compound, the MIC ([1]; KPM1026a, xeruborbactam 8 µg/ml) was 0.002 mg/L, the “fold decrease compared to MIC” value [1, 32] was 2 fold and the “fold decrease compared to MIC” value [1, 33] was 4 fold. For the same compound, the “fold decrease compared to MIC” value [1, 34] was 4 fold, the “fold decrease compared to MIC” value [1, 35] was 8 fold and the MIC ([1]; Klebsiella pneumoniae, BAA2814, KPC-3-producing KP1074 (BAA-2814), xeruborbactam none, read-out: MIC) was 256 mg/L. It also gave an MIC ([1]; Klebsiella pneumoniae, KPM1026a, alone, read-out: MIC) of 0.03 mg/L, an MIC [1, 5] of 0.03 mg/L and an MIC ([1]; Klebsiella pneumoniae, KPM1211 (KP1074 after loss of pKpQIL), read-out: MIC) of 0.5 mg/L. It also gave an MIC ([1]; Klebsiella pneumoniae, KPM1271 (KPM1026a/KPC-3), alone, read-out: MIC) of 4 mg/L, an MIC ([1]; Klebsiella pneumoniae, KPM1281 (KPM1026a/NDM-1), alone, read-out: MIC) of 16 mg/L and an MIC [1, 36] of 0.06 mg/L. For the same compound, the MIC [1, 6] was 0.06 mg/L, the MIC [1, 37] was 0.125 mg/L and the MIC [1, 7] was 0.125 mg/L. It also gave an MIC ([1]; Klebsiella pneumoniae, KPM4127 (KPM3532 TolQ::M189K/KPC-3), alone) of 8 mg/L, an MIC ([1]; Klebsiella pneumoniae, KPM4128 (KPM3534 TolQ::S31F/KPC-3), alone) of 32 mg/L and an MIC ([1]; Klebsiella pneumoniae, KPM4129 (KPM3532 TolQ::M189K/NDM-1), alone) of 8 mg/L. The MIC ([1]; Klebsiella pneumoniae, KPM4130 (KPM3534 TolQ::S31F/NDM-1), alone) was 32 mg/L, the MIC [1, 8] was 0.125 mg/L and the MIC [1, 9] was 0.125 mg/L. It also gave an MIC [1, 10] of 0.125 mg/L, an MIC [1, 11] of 0.125 mg/L and an MIC [1, 12] of 0.125 mg/L. The MIC [1, 13] was 0.03 mg/L, the MIC [1, 14] was 0.25 mg/L and the MIC [1, 15] was 2 mg/L. For the same compound, the MIC [1, 16] was 0.125 mg/L, the MIC [1, 17] was 0.25 mg/L and the MIC [1, 18] was 0.25 mg/L. For the same compound, the MIC [1, 19] was 0.03 mg/L, the MIC [2, 38] was 2 mg/L and the MIC [2, 39] was 2 mg/L. For the same compound, the MIC [2, 40] was 1 mg/L, the MIC [2, 41] was 0.25 mg/L and the MIC [2, 20] was 4 mg/L. It also gave an MIC ([2]; strain ACM1013, ΔadeIJK) of 4 mg/L, an MIC ([2]; strain ACM1014, ΔadeABC) of 1 mg/L and an MIC [2, 21] of 0.25 mg/L. The MIC [2, 22] was 8 mg/L, the MIC [2, 23] was 32 mg/L and the MIC [3, 24] was 0.03 mg/L. For the same compound, the MIC ([3]; strain ECM6001, ΔacrB) was 0.03 mg/L, the MIC [3, 25] was 0.125 mg/L and the MIC [4, 42] was 0.5 mg/L. For the same compound, the MIC ([4]; PAM1154, xeruborbactam 2 µg/ml) was 0.125 mg/L, the MIC ([4]; PAM1154, xeruborbactam 4 µg/ml) was 0.125 mg/L and the MIC ([4]; PAM1154, xeruborbactam 8 µg/ml) was 0.06 mg/L. For the same compound, the MIC [4, 26] was 0.5 mg/L, the MIC [4, 27] was 4 mg/L and the MIC [4, 28] was 4 mg/L. For the same compound, the MIC [4, 29] was 0.5 mg/L, the MIC [4, 30] was 0.25 mg/L and the MIC [4, 31] was 0.125 mg/L.
In the case of `CC(C)(O/N=C(\C(=O)N[C@@H]1C(=O)N2C(C(=O)[O-])=C(C[n+]3ccccc3)CS[C@H]12)c1csc(N)n1)C(=O)O` [Ceftazidime], the MIC ([1]; Klebsiella pneumoniae, BAA2814) is reported as 512 mg/L, the MIC [4, 42] is reported as 1 mg/L and the MIC ([4]; PAM1154, xeruborbactam 2 µg/ml) is reported as 0.25 mg/L. The MIC ([4]; PAM1154, xeruborbactam 4 µg/ml) was 0.25 mg/L and the MIC ([4]; PAM1154, xeruborbactam 8 µg/ml) was 0.25 mg/L.
In the case of `Nc1nc(/C(=C/CC(=O)O)C(=O)N[C@@H]2C(=O)N3C(C(=O)O)=CCS[C@H]23)cs1` [Ceftibuten], the “fold decrease compared to MIC” value [1] is reported as 0.015 (4) fold and 0.008 (8) fold, the “fold decrease compared to MIC” value [1, 32] is reported as 2 fold and the “fold decrease compared to MIC” value [1, 33] is reported as 2 fold. For the same compound, the “fold decrease compared to MIC” value [1, 34] was 2 fold, the “fold decrease compared to MIC” value [1, 35] was 4 fold and the MIC ([1]; Klebsiella pneumoniae) was 0.06 mg/L. The MIC [1, 36] was 0.125 mg/L and the MIC [1, 37] was 0.125 mg/L.
Compound `C[C@@H](O)[C@H]1C(=O)N2C(C(=O)O)=C(SCCN=CN)C[C@H]12` [Imipenem] has an MIC [2, 38] of 0.125 mg/L, an MIC [2, 39] of 0.125 mg/L and an MIC [2, 40] of 0.03 mg/L. The MIC [2, 41] was 0.015 mg/L, the MIC [4, 42] was 1 mg/L and the MIC ([4]; PAM1154, xeruborbactam 2 µg/ml) was 0.5 mg/L. It also gave an MIC ([4]; PAM1154, xeruborbactam 4 µg/ml) of 0.25 mg/L and an MIC ([4]; PAM1154, xeruborbactam 8 µg/ml) of 0.125 mg/L.
